In paper PMC10367051, “Comprehensive Mechanistic View of the Hydrolysis of Oxadiazole-Based Inhibitors by Histone Deacetylase 6 (HDAC6)” (ACS Chemical Biology, 2023):

Columns and labels:
Format in all cases: biochemical
HDAC1 = target: T1, HDAC1 (Homo sapiens, UniProt Q13547); assay: Fluorometric HDAC inhibition assay, HDAC1; settings: purified human protein; Ac-Gly-Ala-[Lys-Ac]-AMC substrate 10 μM; 15 min preincubation
T1 construct: made in house; host or cells: HEK293/T17
Experimental: (§1) Large-scale expression of recombinant human HDACs was carried out as described previously.[32],[37] Briefly, HEK293/T17 cells were transiently transfected with expression pMM222 plasmids comprising N-terminally tagged (TwinStrep-FLAG-HALO tag; Figure S1) HDAC genes using linear poly(ethyleneimine) (PEI, Polysciences Inc.). Cells were harvested three days post-transfection, and cell pellets were resuspended in the lysis buffer (100 mM Tris-HCl, 10 mM NaCl, 5 mM KCl, 2 mM MgCl2, and 10% glycerol at pH 8.0). Cells were disrupted by sonication, cell lysates were cleared by centrifugation, and soluble fusion proteins were first purified by Streptactin affinity chromatography (IBA). For all HDACs but HDACs 1, 10, and 11, the N-terminal tag was cleaved off overnight by the addition of TEV protease (10:1 HDAC/TEV ratio). Size-exclusion chromatography on a Superose 6 column (GE Healthcare Bio-Sciences; running buffer 30 mM HEPES, 140 mM NaCl, 10 mM KCl, 3% glycerol, and 0.25 mM TCEP) was used as the final purification step for all HDAC constructs.
(§2) Optimized fluorometric assays were used to determine inhibition constants of studied compounds against individual HDAC isoforms as described previously.[32] Briefly, reactions were performed in the activity buffer comprising 50 mM HEPES, 140 mM NaCl, and 10 mM KCl at pH 7.4 supplemented with 1 mg mL^–1 bovine serum albumin (BSA), 1 mM tris(2-carboxyethyl)phosphine (TCEP), 10 μM substrates, and optimized concentrations of HDACs. The Ac-Gly-Ala-[Lys-Ac]-7-amino-methylcoumarylamide (AMC) substrate was used to profile HDACs 1, 2, 3, and 6; Boc-[Lys-TFA]-7-amino-methylcoumarylamide was used for HDACs 4, 5, 7, 8, and 9 (both substrates: Bachem); fluorescein-labeled N8-acetylspermidine was used for HDAC10;[32] and an internally quenched TNFα-derived peptide derivative was used for HDAC11.[39] Deacetylation reactions were monitored either by high-performance liquid chromatography (HPLC) (HDAC10) or by quantification of released AMC (λex/λem = 365/440 nm) using a CLARIOstar plate reader (BMG Labtech GmbH).

HDAC4 = target: T2, HDAC4 (Homo sapiens, UniProt P56524); assay: Fluorometric HDAC inhibition assay, HDAC4; settings: purified human protein; Boc-[Lys-TFA]-AMC substrate 10 μM; 15 min preincubation
T2 construct: TwinStrep-FLAG-HALO (N, cleaved yes); made in house; host or cells: HEK293/T17
Experimental: as §1, §2

HDAC6 = target: T3, HDAC6 (Homo sapiens, UniProt Q9UBN7); assay: Fluorometric HDAC inhibition assay, HDAC6; settings: for IC50: purified human protein, Ac-Gly-Ala-[Lys-Ac]-AMC substrate 10 μM, 15 min preincubation; for fold more potent compared to the hydrazide product 4: HDAC6 potency ratio
T3 construct: TwinStrep-FLAG-HALO (N, cleaved yes); made in house; host or cells: HEK293/T17
T3 sequence (Q9UBN7 1-1215): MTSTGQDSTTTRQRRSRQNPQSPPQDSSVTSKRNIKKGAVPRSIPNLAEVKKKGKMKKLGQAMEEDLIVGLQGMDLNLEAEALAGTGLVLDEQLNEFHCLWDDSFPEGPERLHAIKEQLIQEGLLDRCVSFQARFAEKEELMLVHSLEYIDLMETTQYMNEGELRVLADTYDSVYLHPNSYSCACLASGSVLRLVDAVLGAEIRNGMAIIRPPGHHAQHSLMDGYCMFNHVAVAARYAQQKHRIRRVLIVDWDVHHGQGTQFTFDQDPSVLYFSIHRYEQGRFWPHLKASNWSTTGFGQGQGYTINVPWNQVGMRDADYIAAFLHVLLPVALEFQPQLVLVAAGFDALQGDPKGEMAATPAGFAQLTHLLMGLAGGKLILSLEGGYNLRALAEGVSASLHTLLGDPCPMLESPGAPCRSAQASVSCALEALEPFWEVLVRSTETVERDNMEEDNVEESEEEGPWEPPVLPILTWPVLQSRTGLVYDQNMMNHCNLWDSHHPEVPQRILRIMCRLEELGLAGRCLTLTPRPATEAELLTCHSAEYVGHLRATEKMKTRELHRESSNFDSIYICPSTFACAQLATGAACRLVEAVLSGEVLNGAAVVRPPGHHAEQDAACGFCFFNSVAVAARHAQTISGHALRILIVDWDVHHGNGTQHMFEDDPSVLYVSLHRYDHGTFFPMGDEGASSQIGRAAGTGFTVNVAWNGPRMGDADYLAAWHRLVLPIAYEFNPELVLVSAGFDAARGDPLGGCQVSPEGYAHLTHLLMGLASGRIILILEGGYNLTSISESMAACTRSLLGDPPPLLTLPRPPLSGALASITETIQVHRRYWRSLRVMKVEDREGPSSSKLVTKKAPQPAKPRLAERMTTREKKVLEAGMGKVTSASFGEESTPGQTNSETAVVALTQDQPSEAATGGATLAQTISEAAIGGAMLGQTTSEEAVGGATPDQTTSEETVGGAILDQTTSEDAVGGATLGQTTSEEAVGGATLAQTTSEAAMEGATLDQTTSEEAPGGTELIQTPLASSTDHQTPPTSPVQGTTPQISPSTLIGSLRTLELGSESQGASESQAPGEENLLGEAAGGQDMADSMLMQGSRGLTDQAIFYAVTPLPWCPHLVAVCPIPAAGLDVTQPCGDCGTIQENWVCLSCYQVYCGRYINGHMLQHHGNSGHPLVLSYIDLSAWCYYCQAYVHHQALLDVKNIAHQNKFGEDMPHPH
Experimental: as §1, §2

HDAC8 = target: T4, HDAC8 (Homo sapiens, UniProt Q9BY41); assay: Fluorometric HDAC inhibition assay, HDAC8; settings: purified human protein; Boc-[Lys-TFA]-AMC substrate 10 μM; 15 min preincubation
T4 construct: TwinStrep-FLAG-HALO (N, cleaved yes); made in house; host or cells: HEK293/T17
T4 sequence (Q9BY41 1-377): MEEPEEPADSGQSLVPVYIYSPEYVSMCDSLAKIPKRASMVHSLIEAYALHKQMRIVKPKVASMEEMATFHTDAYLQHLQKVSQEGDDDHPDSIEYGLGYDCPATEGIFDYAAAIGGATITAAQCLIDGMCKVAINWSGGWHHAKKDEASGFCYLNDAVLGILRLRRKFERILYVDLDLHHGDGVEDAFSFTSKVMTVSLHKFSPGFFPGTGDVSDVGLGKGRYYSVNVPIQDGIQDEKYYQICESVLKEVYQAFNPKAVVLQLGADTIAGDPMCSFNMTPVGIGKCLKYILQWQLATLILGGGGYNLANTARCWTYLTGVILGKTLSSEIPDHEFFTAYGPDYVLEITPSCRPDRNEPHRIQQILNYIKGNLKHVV
Experimental: as §1, §2

HDAC9 = target: T5, HDAC9 (Homo sapiens, UniProt Q9UKV0); assay: Fluorometric HDAC inhibition assay, HDAC9; settings: purified human protein; Boc-[Lys-TFA]-AMC substrate 10 μM; 15 min preincubation
T5 construct: TwinStrep-FLAG-HALO (N, cleaved yes); made in house; host or cells: HEK293/T17
Experimental: as §1, §2

T2 sequence (P56524 whole entry): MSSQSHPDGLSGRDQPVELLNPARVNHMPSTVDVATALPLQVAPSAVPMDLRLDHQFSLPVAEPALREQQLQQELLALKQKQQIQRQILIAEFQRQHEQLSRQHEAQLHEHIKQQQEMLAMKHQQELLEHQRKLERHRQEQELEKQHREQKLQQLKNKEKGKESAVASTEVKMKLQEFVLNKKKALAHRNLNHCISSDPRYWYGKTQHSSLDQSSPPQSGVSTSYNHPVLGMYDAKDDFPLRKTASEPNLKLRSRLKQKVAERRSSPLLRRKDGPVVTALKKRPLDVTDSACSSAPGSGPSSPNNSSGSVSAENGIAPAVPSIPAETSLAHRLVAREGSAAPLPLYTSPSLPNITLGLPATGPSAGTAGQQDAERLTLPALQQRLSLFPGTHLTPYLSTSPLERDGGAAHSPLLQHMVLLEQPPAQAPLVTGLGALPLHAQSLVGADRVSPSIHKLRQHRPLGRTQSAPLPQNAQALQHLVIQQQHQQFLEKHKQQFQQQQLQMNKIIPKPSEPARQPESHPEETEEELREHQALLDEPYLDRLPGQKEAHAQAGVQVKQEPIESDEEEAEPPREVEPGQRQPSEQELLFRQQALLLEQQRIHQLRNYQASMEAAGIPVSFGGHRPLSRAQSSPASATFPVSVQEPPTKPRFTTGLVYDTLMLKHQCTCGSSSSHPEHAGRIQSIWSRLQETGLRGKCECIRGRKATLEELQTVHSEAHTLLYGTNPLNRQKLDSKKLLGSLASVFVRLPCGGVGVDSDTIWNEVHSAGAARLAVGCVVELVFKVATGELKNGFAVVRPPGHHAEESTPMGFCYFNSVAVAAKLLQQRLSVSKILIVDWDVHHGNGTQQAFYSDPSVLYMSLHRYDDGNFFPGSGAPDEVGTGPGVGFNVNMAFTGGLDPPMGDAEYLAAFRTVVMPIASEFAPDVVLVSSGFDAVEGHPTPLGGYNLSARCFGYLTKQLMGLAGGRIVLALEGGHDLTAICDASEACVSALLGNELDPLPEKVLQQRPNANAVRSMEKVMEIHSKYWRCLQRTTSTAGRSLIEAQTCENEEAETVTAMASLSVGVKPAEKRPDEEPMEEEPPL
T5 sequence (Q9UKV0 whole entry): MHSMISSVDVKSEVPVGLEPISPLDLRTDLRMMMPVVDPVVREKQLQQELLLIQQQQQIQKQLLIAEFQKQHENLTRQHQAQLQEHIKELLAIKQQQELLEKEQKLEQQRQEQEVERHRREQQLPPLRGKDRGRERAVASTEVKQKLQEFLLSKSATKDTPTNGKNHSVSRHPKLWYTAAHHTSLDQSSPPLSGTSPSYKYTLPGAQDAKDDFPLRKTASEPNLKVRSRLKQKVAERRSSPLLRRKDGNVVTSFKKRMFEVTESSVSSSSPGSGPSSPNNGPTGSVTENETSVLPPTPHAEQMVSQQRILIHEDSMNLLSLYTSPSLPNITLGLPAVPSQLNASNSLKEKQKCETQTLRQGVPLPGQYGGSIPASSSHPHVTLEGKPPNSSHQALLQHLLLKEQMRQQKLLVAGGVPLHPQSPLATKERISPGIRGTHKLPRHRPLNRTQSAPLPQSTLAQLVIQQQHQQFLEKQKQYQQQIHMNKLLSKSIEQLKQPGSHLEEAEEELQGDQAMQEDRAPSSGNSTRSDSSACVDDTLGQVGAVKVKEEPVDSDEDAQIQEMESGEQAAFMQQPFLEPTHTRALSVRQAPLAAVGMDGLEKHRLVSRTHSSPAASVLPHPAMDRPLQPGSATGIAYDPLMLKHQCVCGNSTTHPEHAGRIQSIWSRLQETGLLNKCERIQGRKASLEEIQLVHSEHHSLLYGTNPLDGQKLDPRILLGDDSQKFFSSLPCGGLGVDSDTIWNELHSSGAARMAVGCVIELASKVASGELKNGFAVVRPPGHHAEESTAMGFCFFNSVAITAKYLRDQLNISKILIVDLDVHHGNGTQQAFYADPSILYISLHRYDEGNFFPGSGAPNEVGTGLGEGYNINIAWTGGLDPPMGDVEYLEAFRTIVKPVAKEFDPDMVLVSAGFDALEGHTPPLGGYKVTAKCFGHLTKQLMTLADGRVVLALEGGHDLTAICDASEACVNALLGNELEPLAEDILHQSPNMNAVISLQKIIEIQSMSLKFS
T1 sequence (Q13547 whole entry): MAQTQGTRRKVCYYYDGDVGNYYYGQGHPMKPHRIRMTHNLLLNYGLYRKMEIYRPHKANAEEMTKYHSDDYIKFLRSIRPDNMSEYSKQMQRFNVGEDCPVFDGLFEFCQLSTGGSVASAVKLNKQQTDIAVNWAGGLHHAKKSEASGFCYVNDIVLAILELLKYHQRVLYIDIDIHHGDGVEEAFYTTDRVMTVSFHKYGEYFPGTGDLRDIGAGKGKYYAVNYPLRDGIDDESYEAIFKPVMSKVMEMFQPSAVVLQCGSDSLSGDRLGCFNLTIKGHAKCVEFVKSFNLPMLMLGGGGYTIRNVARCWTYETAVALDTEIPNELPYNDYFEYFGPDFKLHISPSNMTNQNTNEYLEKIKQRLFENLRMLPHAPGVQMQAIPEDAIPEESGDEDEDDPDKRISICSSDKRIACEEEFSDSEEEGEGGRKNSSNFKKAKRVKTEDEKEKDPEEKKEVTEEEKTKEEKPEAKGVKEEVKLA

Structure (SMILES) | IC50 (HDAC1) [µM] | IC50 (HDAC4) [µM] | IC50 (HDAC6) [µM] | IC50 (HDAC8) [µM] | IC50 (HDAC9) [µM] | fold more potent compared to the hydrazide product 4 (HDAC6)
CS(=O)(=O)N(Cc1ccc(C(=O)NN)cn1)c1cccc(Cl)c1 [compound 4] | > 20 | > 20 | 2.16 ± 0.392 | > 20 | > 20 | 
CS(=O)(=O)N(Cc1ccc(-c2nnc(C(F)(F)F)o2)cn1)c1cccc(Cl)c1 [compound 7] | > 20 | > 20 | 0.0146 ± 0.008 | > 20 | > 20 | ~150 fold
CS(=O)(=O)N(Cc1ccc(-c2nnc(C(F)F)o2)cn1)c1cccc(Cl)c1 [compound 8] | > 20 | > 20 |  | > 20 | > 20 | approximately 1000 fold

Further lines, with some results ahead:

IC50 (HDAC1) [µM] | IC50 (HDAC4) [µM] | IC50 (HDAC6) [µM] | IC50 (HDAC8) [µM] | IC50 (HDAC9) [µM] | Structure (SMILES) | fold more potent compared to the hydrazide product 4 (HDAC6)
9.17 | > 20 | 10.8 | > 20 |  | CS(=O)(=O)N(Cc1ccc(C(=O)NNC(=O)C(F)(F)F)cn1)c1cccc(Cl)c1 [compound 5] | 
> 20 | > 20 | 14.5 | > 20 |  | CS(=O)(=O)N(Cc1ccc(C(=O)NNC(=O)C(F)F)cn1)c1cccc(Cl)c1 [compound 6] | 
